Test [1] relates to vascular lesion (abnormal vasculature) in brain tissue. To be noted: ICG alone; general comparison statement; cited from earlier work.
The subject of test [2] is Grade 4 Atypical Teratoid Rhabdoid Tumor (ATRT) in the posterior fossa/brain stem. Briefly: Intraoperative NIR fluorescence imaging during pediatric brain tumor resection. The class given is in vivo, human. How it is done: This example describes use of the imaging system and/or method disclosed herein for coaxial illumination and visualization of tozuleristide fluorescence during surgical resection of a pediatric brain tumor. The imaging system of the present invention was used to image brain tissue to detect a cancer using fluorescence imaging. Surgery was performed to remove cancer from the subject.
Subject T613 was diagnosed with a Grade 4 Atypical Teratoid Rhabdoid Tumor (ATRT) in the posterior fossa/brain stem. Tozuleristide which is a peptide-fluorophore detectable agent (15 mg/m2 dose), was given by intravenous (IV) bolus injection about 13.5 hours prior to the start of surgery. The imaging system was attached to the Zeiss Pentero surgical microscope prior the start of surgery, and the microscope head and arm and the imaging system and proximal imaging cable were enclosed in the microscope manufacturer's standard sterile drape. The drape's cover glass was secured over the bottom window aperture of the imaging system.
After the tumor was exposed, the imaging platform was initialized and used continuously. The imaging platform enabled the surgeon to view fluorescence and visible imaging separately and together on the imaging station display, simultaneously with viewing the surgical site in visible light through the operating microscope's eyepieces. […] Moreover, there was no need to reposition the operating microscope to view the imaging platform's fluorescence and visible images, thus allowing normal imaging of the surgical area through the microscope's eyepieces together with the fluorescence imaging system during the operation, which decreased disruption to the surgical workflow.
Video was captured for the duration of the tumor resection, and still images were captured of the exposed tumor. […] FIGS. 15A-15F show images taken from the tumor resection with the near-infrared (NIR) fluorescence images of the tumor using the imaging system (FIGS. 15B and 15E) and the overlay image with the NIR or IR fluorescence overlaid with the white light or visible light spectrum illumination (FIGS. 15C and 15F). […] In the overlay image, the normal brain tissue appeared red, as it does under normal visible light or white light as shown the visible light images of the tumor ([…]). The surgeon noted that only tumor tissue appeared fluorescent.

Test [3] relates to vascular lesion (abnormal vasculature) in brain tissue. The test is described as follows: Intraoperative NIR fluorescence imaging during resection of a cerebral vascular lesion (arteriovenous or cavernous malformation). The following applies: for Fluorescence in surrounding normal brain tissue and normal vasculature / Tozuleristide fluorescence in the abnormal vascular tissue / vascular lesion: pediatric subject, 22 mg IV approximately 5-6 hours before surgery and image collection, in situ. It is filed as in vivo, human. How it is done: This example describes use of the imaging system and/or methods disclosed herein for coaxial illumination and visualization of tozuleristide fluorescence during surgical resection of an arteriovenous malformation or cavernous malformation in a pediatric patient. The imaging system of the present invention was used to image brain tissue to detect abnormal vasculature using fluorescence imaging. Surgery was performed to remove the abnormality from the subject.
A pediatric subject with a history of anosmia was found on MRI to have a 3.5 cm T1-hypointense, T2/FLAIR-hyperintense mass in the right middle frontal gyrus with a central enhancing nodule, initially diagnosed pre-operatively to be a low-grade glioma. […] The patient received 22 mg tozuleristide via IV injection approximately 5-6 hours before surgery and image collection. The imaging system head was attached to the Zeiss Pentero surgical microscope along with two eyepieces prior the start of surgery.
After the lesion was exposed, the imaging system was initialized and used continuously. The imaging system enabled the surgeon to view fluorescence and visible imaging together and simultaneously with the operating microscope. A microsurgical resection was performed through a right frontal craniotomy. […] The abnormal tissue was completely resected. The patient recovered without deficit. Pathology confirmed the absence of tumor.
Video was captured for the duration of the resection, and still images were captured of the exposed lesion. […] FIGS. 29A-I show images taken from the vascular lesion with the near-infrared (NIR) fluorescence images of the vascular lesion using the imaging system. […] In the overlay image, the normal brain tissue and normal blood vessels appeared pink or light tan to red, as it does under normal visible light or white light. The surgeon noted that only the abnormal vascular tissue appeared fluorescent.
FIGS. 29A-I show representative images of in situ or intra-operative tissue during surgery on a vascular lesion in a patient, wherein 22 mg of tozuleristide was administered to the human subject. […] Labeled arrows indicate non-fluorescent regions of normal blood vessels (“BV”) and normal brain tissue (“NB”). In contrast, fluorescence signal corresponding to lighter and brighter areas in the NIR or IR image, was indicative of the presence of tozuleristide on the abnormal vascular lesion (“VL”), and not in normal tissue. […] The arrows mark the same locations as shown in the NIR or IR image in FIG. 29E. […] Fluorescence in the vascular lesion (“VL”) clearly differentiated it from the surrounding normal tissues, including normal blood vessels (“BV”). […] Arrows indicate the vascular lesion (labeled “VL”) and adjacent normal brain (labeled “NB”), which is non-fluorescent. […] While the normal brain has a light tan to pink color (light gray in a gray scale image), it is perfused with normal blood vessels that can be differentiated from the vascular lesion by the absence of fluorescence.

[4] abbreviates: Subject T613, 15 mg/m2 IV bolus about 13.5 hours prior to start of surgery, in situ.

“Also recorded” adds a separate entry of the source.

For `CC1(C)C(/C=C/C=C/C=C/C=C2\N(CCCCS(=O)(=O)O)c3ccc4ccccc4c3C2(C)C)=[N+](CCCCS(=O)(=O)[O-])c2ccc3ccccc3c21` [ICG, indocyanine green], the “Blood vessel fluorescence after injection” value in test [1] was “transiently lights up blood vessels immediately after injection”.
As to Tozuleristide, the “Surgeon's assessment of the distinction between tumor and normal tissue fluorescence” value in test [2] (NIR or IR fluorescence using the imaging system, compared with normal visible light) was “very good distinction between tumor and normal tissue fluorescence”. Also, in test [2] (setting [4]), the “Fluorescence in non-tumor brain tissue” value was “did not show any fluorescence”. Besides, the “Tozuleristide fluorescence in the exposed tumor (NIR or IR fluorescence image)” value in test [2] (setting [4]) is listed as “observed in situ in the exposed tumor”. The “Histopathology of the fluorescent tissue samples” value is “confirmed to be viable tumor” in test [2] (tumor resection, Subject T613); “confirmed to be non-cancerous and vascular in nature” in test [3] (vascular lesion resection). Moreover, in test [3] (general statement, fluorescence dependent on pathological tissue binding and uptake), the “Time after injection at which diseased tissue can be highlighted” value is reported as “up to 30 hours”. Besides, the entries for the “Fluorescence in surrounding normal brain tissue and normal vasculature” value in test [3] and in test [3] (listed as Tozuleristide) were “showed no fluorescence” and “no discernable background fluorescence”, respectively. For the same compound, the “Tozuleristide fluorescence in the abnormal vascular tissue / vascular lesion” value in test [3] is recorded as “indicative of the presence of tozuleristide in the vascular lesion; also recorded: fluoresced avidly”; in test [3] (listed as Tozuleristide), “observed in situ in the exposed vascular lesion”.
